Source: patent US20060210620A1, “Co-precipitated amorphous losartan and dosage forms comprising the same” (priority 2003, published 2006)

Assay: Accelerated stability testing at 40° C. and 75% relative humidity, solid form evaluated by X-ray diffraction
Assay type: physicochemical
Conditions: storage time not stated (spectra taken later in time, FIG. 1)
Procedure: The term “stable” as used herein refers to less than about 5% conversion of the amorphous form of losartan to a crystalline form of losartan when stored at 40° C. and 75 percent relative humidity for three months.
The amorphous solids of the following examples were evaluated for the presence of crystals and/or other degradative products using X-ray diffraction (XRD) techniques, supplemented with infrared and differential scanning calorimetry. The examples are meant to further exemplify the invention and are not intended to limit the scope of the invention.

With `CCCCc1nc(Cl)c(CO)n1Cc1ccc(-c2ccccc2-c2nn[nH]n2)cc1` [Example 1, losartan potassium] the “Solid form (amorphous/crystalline) by XRD after accelerated stability conditions” value was “almost all of the solid material converted to the crystalline form”.
